“Also recorded” adds a separate entry of the source.
How the values were obtained:
[1] = In vitro stability of Tc-99m complexes (radiochemical purity by thin layer chromatography); format: physicochemical; details: for remaining at 2 min: 2 min post formation; for remaining at 2 min / remaining at 1 h / remaining at 2 h: dl/meso mixture, read-out: % of the desired Tc-99m complex; for remaining at 1 h: 60 min post formation; for remaining at 2 h: 120 min post formation; for in vitro stability of the Tc-99m complex: in words, complex of compound 1 versus compound 2
Protocol: Glass fibre strips impregnated with silica gel form the stationary phase of a fast and accurate analytical system. Two strips, each measuring 20 cm×2 cm were used in each analysis. Approximately five microliters of the solution containing the complex was applied 1 cm from the base of each strip, and one strip developed with saline, the other with methylethylketone (MEK).
Determination of the distribution of radioactivity along each strip was conducted by means of a 100 channel analysis system interfaced to a Nova computer, programmed for peak integration. The Table below indicates the RF values of the major components of the Tc-99m solutions. The observed radiochemical purity of the Tc-99m complexes was generally greater than 80%.
Radiochemical purity determinations by thin layer chromatography were carried out at several time points following formation of the technetium complexes of compounds 1 and 2 (a dl/meso mixture in each case) to determine the stability of the complexes.

[2] = Animal biodistribution of Tc-99m complexes of ligands, no separation of stereoisomers (Example 22); format: in vivo, rats; details: for % id/organ, Blood / % id/organ, Brain / % id/organ, Heart / % id/organ, Liver: i.v. rats, mean of 3 animals
Protocol: The ratio of diastereoisomers in the Tc-99m complexes used in this experiment is not known.
The results at 2 minutes and 1 hour p.i. are the mean of 3 animals.
The results at 2 hours p.i. are the mean of 2 animals.

[3] = Clinical comparison of dl and meso diastereoisomers of Compound 1, whole body scanning (Example 25a); format: in vivo, normal volunteer subjects (human); details: 20 minutes p.i.; mean; human
Protocol: All clinical studies, involving comparisons between the Tc-99m complexes of dl and meso, and d,l and dl stereoisomers of Compound 1 were conducted in normal volunteer subjects at Aberdeen Royal Infirmary.
(a) Comparison of dl and meso diastereoisomers of Compound 1
Data is then taken from area of interest studies employing a whole body scanning device.

[4] = Blood clearance in human volunteers; format: in vivo, human volunteer subjects; details: for % id in blood: unseparated dl/meso mixture, human
Source text: (§1) The following data allows comparison of the relative performance of the complexes of compounds 1 and 2 (an unseparated dl/meso mixture in each case) in human volunteer subjects.

[5] = Whole body distribution in human volunteers; format: in vivo, human volunteer subjects; details: unseparated dl/meso mixture; for Whole body distribution, Bladder / Whole body distribution, Brain / Whole body distribution, Liver: 2 hrs p.i., human
Source text: as §1
(ii) Whole body distribution

[6] = Tomographic imaging of the brain in man; format: in vivo, normal volunteers (human); details: in words; unseparated dl/meso mixture; human
Protocol: Tomographic images of the brain were determined using the same complexes in normal volunteers. The device used was a single head rotating gamma camera and minicomputer system. 64 25-second images were accumulated by the gamma camera during 360° circular rotation of the head and shoulders of the volunteer.

leucocytes = experiment: In vitro labelling of leucocytes; format: cell-based; details: ambient temperature
Protocol: A solution of the technetium-99m complex of compound 1 was made as follows. A vial contained 0.5 mg compound 1; […] stannous chloride dihydrate; and 4.5 mg sodium chloride; freeze-dried and sealed under nitrogen. To this was added 5.0 ml of sodium pertechnetate eluate from a 135mCi technetium generator.
Mixed leucocytes were obtained from 34 ml of acid citrate anticoagulated blood by dextran sedimentation. These were washed twice and resuspended in 2.0 ml phosphate buffered saline containing approximately 0.25 mg/ml prostaglandin El. The suspension was incubated with 0.2 ml of the solution of the technetium-99m complex of compound 1. Incubation was at ambient temperature, and samples were removed at intervals for analysis. After two minutes, 60% of the radioactivity was associated with blood cells; after 5 minutes, 83% and after 10 minutes, 89%.

[7] = Rat biodistribution of Tc-99m complexes from isolated stereoisomers (Example 24); details: d- versus l-enantiomer; rats
Protocol: 0.1 ml of the Tc-99m complex solution was administered by intravenous injection (lateral tail vein) to each of five or six rats (140-220 g). The injected dose was equivalent to approximately 1 mCi of Tc-99m. Three rats were sacrificed at 2 minutes post injection, and 3 at 1 hour or 2 at 2 hours post injection. At dissection, the organs and blood samples shown in the following table were taken, and assayed for radioactivity. The uptake in each organ or tissue was calculated as a percentage of the total activity recovered.
Data in Tables (a) and (b) are the mean from 3 animals at each time point.

| Structure (SMILES) | remaining at 2 min [1] | remaining at 1 h [1] | remaining at 2 h [1] | in vitro stability of the Tc-99m complex [1] | % id/organ, Blood ([2]; 2 min pi) | % id/organ, Brain ([2]; 2 min pi) | % id/organ, Heart ([2]; 2 min pi) | % id/organ, Liver ([2]; 2 min pi) | % id/organ, Blood ([2]; 1 hr pi) | % id/organ, Brain ([2]; 1 hr pi) | % id/organ, Heart ([2]; 1 hr pi) | % id/organ, Liver ([2]; 1 hr pi) | % id in blood ([4]; 14 minutes post injection) | % id in blood ([4]; 40 minutes post injection) | % id in blood ([4]; 60 minutes post injection) | % id in blood ([4]; 250 minutes post injection) | Whole body distribution, Bladder [5] | Whole body distribution, Brain [5] | Whole body distribution, Liver [5] | quality of tomographic images of the brain [6] | also measured |
| --- | --- | --- | --- | --- | --- | --- | --- | --- | --- | --- | --- | --- | --- | --- | --- | --- | --- | --- | --- | --- | --- |
| CC(=NO)C(C)NCC(C)(C)CNC(C)C(C)=NO (racemic) [Compound 1, 4,8-diaza-3,6,6,9-tetramethylundecane-2,10-dione bis oxime] | 92% | 87% | 79% | only slow in vitro degradation | 16.7 % id/organ | 1.5 % id/organ | 0.4 % id/organ | 8.4 % id/organ | 19.6 % id/organ | 1.2 % id/organ | 0.2 % id/organ | 5.4 % id/organ | 9.54 % id | 7.73 % id | 6.38 % id | 5.26 % id | 3.9 | 3.70 | 23.35 | Good quality tomographic images of the brain | uptake in the brain of rats ([2]; in words, unseparated dl/meso mixture): Good uptake in the brain; % injected activity, Bladder + Urine [3]: 1.4 % injected activity; % injected activity, Brain [3]: 1.95 % injected activity; % injected activity, Kidneys [3]: 1.95 % injected activity; % injected activity, Liver [3]: 13.0 % injected activity; removal of radioactivity from brain in humans ([5]; in words): Slow removal of radioactivity from brain; uptake in the brain of humans ([5]; in words): Good uptake in the brain; radioactivity associated with blood cells (leucocytes; after 5 minutes): 83%; radioactivity associated with blood cells (leucocytes; after 10 minutes): 89%; radioactivity associated with blood cells (leucocytes; after two minutes): 60%; difference in brain uptake of the d- and l-enantiomers (factor) [7]: 1.6 |
| CC(=NO)C(C)NCCCNC(C)C(C)=NO (racemic) [Compound 2, 4,8-Diaza-3,9-dimethylundecane-2,10-dione bis oxime] | 82% | 60% | 47% | greatly inferior to that of the complex of compound 1; also recorded: Far better in vitro stability; also recorded: rapid in vitro degradation | 14.6 % id/organ | 1.6 % id/organ | 0.5 % id/organ | 10.9 % id/organ | 12.4 % id/organ | 1.4 % id/organ | 0.5 % id/organ | 4.9 % id/organ | 11.06 % id | 6.9 % id | 5.93 % id | 3.98 % id | 21.02 | 3.48 | 13.21 | less good, due to a higher level of background radiation | percent of the Tc-99m not in the form of the complex, Compound 2 relative to Compound 1 ([1]; at all times): more than twice as great; blood and tissue background clearance of activity in humans ([4]; in words, compound 1 versus complex of compound 2): Better blood and tissue background clearance |
